Patent US6737383B1, “Herbicidal oxadiazolidines” (priority 1999, dated 2004)

Experiments:
[1] = system: bedstraw; assay: Test B pre/postemergence bedstraw; format: in vivo, Galium aparine
How it was run: (§1)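 Response is a visual 0-to-10 score relative to untreated plants, where 0 means no effect and 10 means complete control, taken twelve to sixteen days after application. Treatments went onto soil at planting and onto foliage of 1- to 4-leaf plants, using a surfactant-containing non-phytotoxic solvent.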

[2] = system: blackgrass; assay: Test B pre/postemergence blackgrass; format: in vivo, Alopecurus myosuroides
How it was run: as §1

[3] = system: giant foxtail; assay: Test B pre/postemergence giant foxtail; format: in vivo, Setaria faberii
How it was run: as §1

[4] = system: morningglory; assay: Test B pre/postemergence morningglory; format: in vivo, Ipomoea hederacea
How it was run: as §1

[5] = system: pigweed; assay: Test B pre/postemergence pigweed; format: in vivo, Amaranthus retroflexus
How it was run: as §1

[6] = system: rape; assay: Test B pre/postemergence rape; format: in vivo, Brassica napus
How it was run: as §1

[7] = system: soybean; assay: Test B pre/postemergence soybean; format: in vivo, Glycine max
How it was run: as §1

[8] = system: sugar beet; assay: Test B pre/postemergence sugar beet; format: in vivo, Beta vulgaris
How it was run: as §1

[9] = system: velvetleaf; assay: Test B pre/postemergence velvetleaf; format: in vivo, Abutilon theophrasti
How it was run: as §1

[10] = system: wheat; assay: Test B pre/postemergence wheat; format: in vivo, Triticum aestivum
How it was run: as §1

[11] = system: wild oat; assay: Test B pre/postemergence wild oat; format: in vivo, Avena fatua
How it was run: as §1

[12] = system: purple nutsedge; assay: Test B pre/postemergence purple nutsedge; format: in vivo, Cyperus rotundus
How it was run: as §1

[13] = system: rice; assay: Test B flood test rice; format: in vivo, Oryza sativa
How it was run: (§2)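 Each value is a visual injury score relative to controls, with 10 meaning complete control and 0 no effect. Evaluation took place twelve to sixteen days after the 2-leaf-stage plants were treated and kept in the greenhouse.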

[14] = system: smallflower flatsedge; assay: Test B flood test smallflower flatsedge; format: in vivo, Cyperus difformis
How it was run: as §2

[15] = system: duck salad; assay: Test B flood test duck salad; format: in vivo, Heteranthera limosa
How it was run: as §2

[16] = system: bamyardgrass; assay: Test B flood test barnyardgrass; format: in vivo, Echinochloa crus-galli
How it was run: as §2

[17] = Preemergence, Rate 62 g/ha, scale of 0 to 10 where 0 is no effect and 10 is complete control
[18] = Preemergence, Rate 125 g/ha, 0 is no effect, 10 is complete control
[19] = Preemergence, Rate 250 g/ha, scale 0 to 10, 0 is no effect, 10 is complete control
[20] = Preemergence, Rate 500 g/ha, scale of 0 to 10 where 0 is no effect and 10 is complete control
[21] = Rate 62 g/ha, Postemergence, scale of 0 to 10 where 0 is no effect and 10 is complete control
[22] = Rate 125 g/ha, Postemergence, scale 0 to 10
[23] = Rate 500 g/ha, Postemergence, scale 0 to 10
[24] = Rate 62 g/ha, headed Pre-emergence (flood test species), scale 0 to 10 (0 no effect, 10 complete control)
[25] = Rate 125 g/ha, Pre-emergence, flood test species, scale 0 to 10 where 0 is no effect and 10 is complete control
[26] = Rate 250 g/ha, Pre-emergence, flood-test species, scale 0 to 10, 0 is no effect, 10 is complete control
[27] = Rate 500 g/ha, headed Pre-emergence (flood test species), scale 0 to 10 (0 no effect, 10 complete control)

CC(C)N(C(=O)n1oc(=O)n(-c2ccc(OC(F)(F)F)cc2)c1=O)c1ccc(F)cc1 [Compound 202]
Bedstraw plant response rating [1, 17]: 0 | Bedstraw plant response rating (0 to 10 scale) [1, 18]: 0 | Bedstraw plant response rating [1, 19]: 6 | Plant response rating, Bedstraw [1, 20]: 2 | Bedstraw plant response rating [1, 21]: 1 | Bedstraw plant response rating [1, 22]: 2 | Plant response rating (0 to 10; 0 is no effect, 10 is complete control), Bedstraw ([1]; Rate 250 g/ha, Postemergence): 4 | Bedstraw plant response rating [1, 23]: 4 | Blackgrass plant response rating [2, 17]: 0 | Blackgrass plant response rating (0 to 10 scale) [2, 18]: 0 | Blackgrass plant response rating [2, 19]: 5 | Plant response rating, Blackgrass [2, 20]: 2 | Blackgrass plant response rating [2, 21]: 0 | Blackgrass plant response rating [2, 22]: 3 | Plant response rating (0 to 10; 0 is no effect, 10 is complete control), Blackgrass ([2]; Rate 250 g/ha, Postemergence): 5 | Blackgrass plant response rating [2, 23]: 6 | Giant foxtail plant response rating [3, 17]: 2 | Giant foxtail plant response rating (0 to 10 scale) [3, 18]: 6 | Giant foxtail plant response rating [3, 19]: 7 | Plant response rating, Giant foxtail [3, 20]: 10 | Giant foxtail plant response rating [3, 21]: 0 | Giant foxtail plant response rating [3, 22]: 0 | Plant response rating (0 to 10; 0 is no effect, 10 is complete control), Giant foxtail ([3]; Rate 250 g/ha, Postemergence): 0 | Giant foxtail plant response rating [3, 23]: 2 | Morningglory plant response rating [4, 17]: 0 | Morningglory plant response rating (0 to 10 scale) [4, 18]: 0 | Morningglory plant response rating [4, 19]: 0 | Plant response rating, Morningglory [4, 20]: 1 | Morningglory plant response rating [4, 21]: 2 | Morningglory plant response rating [4, 22]: 5 | Plant response rating (0 to 10; 0 is no effect, 10 is complete control), Morningglory ([4]; Rate 250 g/ha, Postemergence): 8 | Morningglory plant response rating [4, 23]: 9 | Redroot pigweed plant response rating [5, 17]: 0 | Redroot pigweed plant response rating (0 to 10 scale) [5, 18]: 0 | Redroot pigweed plant response rating [5, 19]: 8 | Plant response rating, Redroot pigweed [5, 20]: 3 | Redroot pigweed plant response rating [5, 21]: 3 | Redroot pigweed plant response rating [5, 22]: 4 | Plant response rating (0 to 10; 0 is no effect, 10 is complete control), Redroot pigweed ([5]; Rate 250 g/ha, Postemergence): 6 | Redroot pigweed plant response rating [5, 23]: 7 | Rape plant response rating [6, 17]: 0 | Rape plant response rating (0 to 10 scale) [6, 18]: 0 | Rape plant response rating [6, 19]: 0 | Plant response rating, Rape [6, 20]: 0 | Rape plant response rating [6, 21]: 1 | Rape plant response rating [6, 22]: 1 | Plant response rating (0 to 10; 0 is no effect, 10 is complete control), Rape ([6]; Rate 250 g/ha, Postemergence): 1 | Rape plant response rating [6, 23]: 4 | Soybean plant response rating [7, 17]: 0 | Soybean plant response rating (0 to 10 scale) [7, 18]: 0 | Soybean plant response rating [7, 19]: 0 | Plant response rating, Soybean [7, 20]: 0 | Soybean plant response rating [7, 21]: 2 | Soybean plant response rating [7, 22]: 2 | Plant response rating (0 to 10; 0 is no effect, 10 is complete control), Soybean ([7]; Rate 250 g/ha, Postemergence): 3 | Soybean plant response rating [7, 23]: 3 | Sugarbeets plant response rating [8, 17]: 0 | Sugarbeets plant response rating (0 to 10 scale) [8, 18]: 0 | Sugarbeets plant response rating [8, 19]: 3 | Plant response rating, Sugarbeets [8, 20]: 1 | Sugarbeets plant response rating [8, 21]: 0 | Sugarbeets plant response rating [8, 22]: 3 | Plant response rating (0 to 10; 0 is no effect, 10 is complete control), Sugarbeets ([8]; Rate 250 g/ha, Postemergence): 4 | Sugarbeets plant response rating [8, 23]: 4 | Velvetleaf plant response rating [9, 17]: 0 | Velvetleaf plant response rating [9, 19]: 6 | Plant response rating, Velvetleaf [9, 20]: 1 | Velvetleaf plant response rating [9, 21]: 0 | Velvetleaf plant response rating [9, 22]: 0 | Plant response rating (0 to 10; 0 is no effect, 10 is complete control), Velvetleaf ([9]; Rate 250 g/ha, Postemergence): 0 | Wheat plant response rating [10, 17]: 0 | Wheat plant response rating [10, 19]: 0 | Plant response rating, Wheat [10, 20]: 2 | Wheat plant response rating [10, 21]: 0 | Wheat plant response rating [10, 22]: 0 | Plant response rating (0 to 10; 0 is no effect, 10 is complete control), Wheat ([10]; Rate 250 g/ha, Postemergence): 0 | Wild oats plant response rating [11, 17]: 0 | Wild oats plant response rating [11, 19]: 0 | Plant response rating, Wild oats [11, 20]: 5 | Wild oats plant response rating [11, 21]: 0 | Wild oats plant response rating [11, 22]: 0 | Plant response rating (0 to 10; 0 is no effect, 10 is complete control), Wild oats ([11]; Rate 250 g/ha, Postemergence): 0 | Nutsedge plant response rating [12, 17]: 0 | Nutsedge plant response rating [12, 21]: 0 | Nutsedge plant response rating [12, 22]: 0 | Plant response rating (0 to 10; 0 is no effect, 10 is complete control), Nutsedge ([12]; Rate 250 g/ha, Postemergence): 0 | Nutsedge plant response rating [12, 23]: 0 | Rice plant response rating [13, 24]: 0 | Rice plant response rating [13, 25]: 0 | Rice plant response rating [13, 26]: 0 | Plant response rating, Rice [13, 27]: 0 | S. Flatsedge plant response rating [14, 24]: 0 | S. Flatsedge plant response rating [14, 25]: 0 | S. Flatsedge plant response rating [14, 26]: 0 | S. Flatsedge plant response rating ([14]; Rate 500 g/ha, Pre-emergence, flood test species, scale 0 to 10 (0 no effect, 10 complete control)): 0 | Ducksalad plant response rating [15, 24]: 0 | Ducksalad plant response rating [15, 25]: 0 | Ducksalad plant response rating [15, 26]: 0 | Plant response rating, Ducksalad [15, 27]: 0 | Barnyardgrass plant response rating [16, 24]: 0 | Barnyardgrass plant response rating [16, 25]: 0 | Barnyardgrass plant response rating [16, 26]: 0 | Plant response rating, Barnyardgrass [16, 27]: 0
